Values joined by “and” are separate entries in the source; they are usually repeats but may differ in a detail not shown here. Equal values may be shown once.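 96-well plates; 48 h exposure; 5 concentrations. Endpoints by linear interpolation between flanking doses. Not reached: highest tested concentration assigned. Here, GI50 denotes the concentration required for 50% inhibition of growth. TGI: concentration producing complete growth inhibition.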

For the first assay, the system named is SNB-75 CNS. Briefly: inhibition of tumour cell growth, NCI panel, 48 h.
In the case of `O=C(O)CS(=O)(=O)C(c1ccccc1)c1ccccc1`, the TGI was more than 100 µM.

With `C=C(C)[C@@H]1CC[C@]2(C(=O)NCCCN)CC[C@]3(C)[C@H](CC[C@@H]4[C@@]5(C)CC[C@H](O)C(C)(C)[C@@H]5CC[C@]43C)[C@@H]12`, the GI50 is 32.1 µM and the TGI was more than 100 µM.

As for `O=C(Nc1cccc(Cl)c1)Nc1ncc(CCNc2ncnc3ccsc23)s1`, the GI50 is 1.62 µM and 1.02 µM; the TGI was 19.5 µM and > 10 µM.

Regarding `CCOC(=O)Cc1c[nH]c(=S)[nH]c1=O`, the GI50 was more than 100 µM and the TGI is more than 100 µM.

For the molecule `CCc1c(C)[nH]c(/C=C2\N=C(c3ccc[nH]3)C=C2OC)c1C`, the GI50 was 0.269 µM and the TGI was determined as 0.71 µM.

Turning to `CCc1ccc(NC(=O)Nc2c[nH]c3ccccc23)cc1`, the GI50 was 1.01 µM and the TGI is more than 26.5 µM.

As for `Nc1ncnc2sc(=S)c3c(c12)CCC3`, the GI50 was 88.7 µM and the TGI is more than 100 µM.

As to `N=C(N)c1nn(C2OC(CO)C(O)C2O)c2nc[nH]c(=O)c12` (centres undefined), the GI50 was 1.48 µM and the TGI worked out at 7.27 µM.

A further assay deals with BT-549 breast. Briefly: inhibition of tumour cell growth, NCI panel, 48 h.
In the case of `CCCN1C(=O)/C(=c2\sc3n(c2=O)C2C(NN=3)N(CC)C(=O)N2CC)c2ccccc21` (centres undefined), the GI50 is 1.66 µM and the TGI came out at 13.2 µM.

As to `CCn1c(-c2nonc2N)nc2cncc(C(=O)N3CCNCC3)c21`, the GI50 was more than 25 µM and the TGI is more than 25 µM.

As to `c1ccc2[nH]c(-c3ccc(N4CCN(c5ccc(-c6nc7ccccc7[nH]6)cc5)CC4)cc3)nc2c1`, the GI50 was more than 100 µM and the TGI was more than 100 µM.

As to `CCN(CC)CCOc1ccc(C(=C(C)c2ccc(Cl)cc2)c2ccc(OCCN(CC)CC)cc2)cc1`, the GI50 was 1.33 µM and the TGI worked out at 4.22 µM.

With `C[C@]12CC[C@H]3[C@@H](CCC4=CC(=O)CC[C@@H]43)[C@@H]1CC[C@@H]2OC(=O)N(CCCl)N=O`, the GI50 is 11.2 µM and the TGI was determined as 26 µM.

As to `CC12CCC(=O)C=C1CCC1C2CCC2(C)C(C(=O)Cn3cnc4c(=S)nc[nH]c43)CCC12` (centres undefined), the TGI is more than 100 µM.

For the molecule `CCc1ccc(NCc2cc(OC)c(OC)c(OC)c2)cc1`, the TGI is > 100 µM and 34.8 µM.

Consider `COc1cc2c(cc1OC)-c1ccc3cc4c(cc3c1N(CCN1CCCC1)C2)OCO4`, for which the GI50 was 1.6 µM and the TGI came to 9.01 µM.

`O=C(O)CS(=O)(=O)C(c1ccccc1)c1ccccc1` had a TGI of more than 100 µM.

In the case of `C=C(C)[C@@H]1CC[C@]2(C(=O)NCCCN)CC[C@]3(C)[C@H](CC[C@@H]4[C@@]5(C)CC[C@H](O)C(C)(C)[C@@H]5CC[C@]43C)[C@@H]12`, the GI50 was 23.8 µM and the TGI worked out at 75.9 µM.

Turning to `O=C(Nc1cccc(Cl)c1)Nc1ncc(CCNc2ncnc3ccsc23)s1`, the GI50 is 2.07 µM and 1.68 µM; the TGI is 11.8 µM and 7.75 µM.

For the molecule `CCOC(=O)Cc1c[nH]c(=S)[nH]c1=O`, the GI50 was more than 100 µM and the TGI was more than 100 µM.

As for `CCc1c(C)[nH]c(/C=C2\N=C(c3ccc[nH]3)C=C2OC)c1C`, the GI50 is 0.129 µM and the TGI is 3.87 µM.

On to `CCc1ccc(NC(=O)Nc2c[nH]c3ccccc23)cc1`, for which the GI50 was 1.68 µM and the TGI is more than 23.8 µM.

With `Nc1ncnc2sc(=S)c3c(c12)CCC3`, the GI50 was 22.5 µM and the TGI turned out to be 68.2 µM.

As for `N=C(N)c1nn(C2OC(CO)C(O)C2O)c2nc[nH]c(=O)c12` (centres undefined), the GI50 is 0.33 µM and the TGI stood at 2.67 µM.

The next assay has as its system NCI-H460 lung. As to the kind of experiment: inhibition of tumour cell growth, NCI panel, 48 h.
As for `CCCN1C(=O)/C(=c2\sc3n(c2=O)C2C(NN=3)N(CC)C(=O)N2CC)c2ccccc21` (centres undefined), the GI50 was 0.411 µM and the TGI was 12.1 µM.

Regarding `CCn1c(-c2nonc2N)nc2cncc(C(=O)N3CCNCC3)c21`, the GI50 was more than 25 µM and the TGI is more than 25 µM.

`c1ccc2[nH]c(-c3ccc(N4CCN(c5ccc(-c6nc7ccccc7[nH]6)cc5)CC4)cc3)nc2c1`: the GI50 was more than 100 µM and the TGI was more than 100 µM.

`CCN(CC)CCOc1ccc(C(=C(C)c2ccc(Cl)cc2)c2ccc(OCCN(CC)CC)cc2)cc1`: the GI50 is 0.63 µM and the TGI was 1.18 µM.

Turning to `C[C@]12CC[C@H]3[C@@H](CCC4=CC(=O)CC[C@@H]43)[C@@H]1CC[C@@H]2OC(=O)N(CCCl)N=O`, the GI50 was 0.0702 µM and the TGI amounted to 2.45 µM.

`CC12CCC(=O)C=C1CCC1C2CCC2(C)C(C(=O)Cn3cnc4c(=S)nc[nH]c43)CCC12` (centres undefined): the TGI is more than 100 µM.

`CCc1ccc(NCc2cc(OC)c(OC)c(OC)c2)cc1`: the GI50 was 0.268 µM and 0.127 µM; the TGI is 25.1 µM and 17 µM.

`COc1cc2c(cc1OC)-c1ccc3cc4c(cc3c1N(CCN1CCCC1)C2)OCO4`: the GI50 was 0.289 µM and the TGI amounted to 1.17 µM.

`O=C(O)CS(=O)(=O)C(c1ccccc1)c1ccccc1` yielded a TGI of more than 100 µM.

Turning to `C=C(C)[C@@H]1CC[C@]2(C(=O)NCCCN)CC[C@]3(C)[C@H](CC[C@@H]4[C@@]5(C)CC[C@H](O)C(C)(C)[C@@H]5CC[C@]43C)[C@@H]12`, the GI50 was 14 µM and the TGI was more than 100 µM.

With `O=C(Nc1cccc(Cl)c1)Nc1ncc(CCNc2ncnc3ccsc23)s1`, the GI50 was 0.114 µM and 0.991 µM; the TGI is more than 72.2 µM.

Take `CCOC(=O)Cc1c[nH]c(=S)[nH]c1=O`: the GI50 was more than 100 µM and the TGI is more than 100 µM.

As to `CCc1c(C)[nH]c(/C=C2\N=C(c3ccc[nH]3)C=C2OC)c1C`, the GI50 was 0.094 µM and the TGI stood at 10.8 µM.

For the molecule `CCc1ccc(NC(=O)Nc2c[nH]c3ccccc23)cc1`, the GI50 is 12.7 µM and the TGI was more than 49.6 µM.

Consider `Nc1ncnc2sc(=S)c3c(c12)CCC3`, for which the GI50 was 35.1 µM and the TGI is more than 100 µM.

For `N=C(N)c1nn(C2OC(CO)C(O)C2O)c2nc[nH]c(=O)c12` (centres undefined), the GI50 was 0.487 µM and the TGI was determined as 9.09 µM.

The record behind these values is PubChem BioAssay (NCI).
